Tested on: SK-MEL-2 multi-cell spheroids, viability
Experiment: Anticancer human tumor SK-MEL-2 cell line growth inhibition [TAK];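 further: spheroids exposed to drugs for seven days before readout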;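 on viability, T/C: percent of DMSO vehicle control luminescence so 100% = untreated viability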
Conditions: for IC50: curve of first compound; for viability, T/C: stronger effect = lower value
Source text: Combinatorial screen of targeted agents with TAK-243 and ipatasertib in multi-cell type tumor spheroids
A high-throughput screen of multi-cell type tumor spheroids was designed to identify active combinations of targeted small molecules and TAK-243 or ipatasertib. Complex spheroids include a stromal component modeled by human endothelial cells (HUVEC) and fibroblasts modeled by human mesenchymal stem cells (MSCs). The concentration ranges selected for each drug and investigational agent were based upon clinically achievable concentrations if the clinical Cmax of the agent was known.
Compounds. The drugs and investigational agents: TAK-243 (785004), ipatasertib (767898), everolimus (733504), selumetinib (741078), bortezomib (756655), trametinib (758246), ixazomib (758254), vemurafenib (761431), dabrafenib (764134), sapanisertib (764658), alpelisib (765974), and copanlisib (816437), were obtained from the National Cancer Institute (NCI) Developmental Therapeutics Program Chemical Repository. The FDA-approved anticancer drug set is available from the NCI Developmental Therapeutics Program. […] The stock solutions were prepared in dimethyl sulfoxide (DMSO, Sigma-Aldrich, St. Louis, MO, cat. D2650) at 800-fold the tested concentration and stored at -70 degrees C prior to their use. All drugs and investigational agents were tested over a range starting from a high concentration at or near the clinical Cmax and decreasing in half-log increments. If the clinical Cmax for an agent had not been determined, the highest concentration tested was 10 microM.
NCI60 Cell Culture. NCI60 cell lines were obtained from the NCI Developmental Therapeutics Program Tumor Repository. For each lot of cells, the Repository performed Applied Biosystems AmpFLSTR Identifiler testing with PCR amplification to confirm consistency with the published Identifier STR profile for each cell line. Cells were kept in continuous culture for no more than 20 passages. The optimal seeding densities for each of the cell lines at each time point assessed were determined prior to performing the concentration response studies. Briefly, the NCI60 human tumor lines were grown as monolayers in RPMI 1640 medium supplemented with 10% FBS and 2 mmol/L L-glutamine.
An additional 2 lines were from the NCI60 cell line panel including melanomas, MALME-3M and SK-MEL-2. Pooled donor human umbilical vein endothelial cells (HUVEC, Lonza, cat. CC-2519) and human mesenchymal stem cells (hMSC, Lonza, cat. PT-2501) were purchased from Lonza (Walkersville, MD).
PDMR cell lines were grown in complete medium (DC medium): Dulbecco's modified Eagle's medium (DMEM)/F12 supplemented with 5% fetal bovine serum (FBS), 2 mM L-glutamine, 100 U/mL penicillin and 100 µg/ml streptomycin, 0.4 µg/ml hydrocortisone, 10 ng/ml epidermal growth factor (EGF) recombinant human protein, 24 µg/mL adenine, and 0.1 mg/mL primocin. During culture from frozen stock vials, PDMR cells were cultured in the same medium containing 10 µM Y-27632 (see Table 3). The PDCs were cultured in complete DMEM/F12 media without 10 microM Y-27632 dihydrochloride for at least two passages prior to the screen. The pooled donor HUVEC and hMSC were cultured in endothelial cell growth medium 2 (PromoCell, Heidelberg, Germany, cat. C-22011) and mesenchymal stem cell growth medium 2 (PromoCell, cat. C-28009), respectively. For all experiments, HUVEC and hMSC were used at passages </=5.
For the pre-screen, cell seeding densities were determined from a titration spanning the range from 5,000 to 313 cells per well. The mct-spheroids including 60% malignant cells, 25% HUVEC and 15% MSC dispensed as a mixture into U-bottom Ultra-Low Attachment 384-well plates (Corning, NY)
High-throughput Drug Combination Screening.
Prior to their inoculation into 384-well plates, malignant cells, HUVEC, and hMSC were removed from T flasks using TrypLE express (Thermo Fisher Scientific, cat. 12605036) and harvested by centrifugation for 5 min at 233 x g. […]

Question: `COC1CC2CCC(C)C(O)(O2)C(=O)C(=O)N2CCCCC2C(=O)OC(C(C)CC2CCC(OCCO)C(OC)C2)CC(=O)C(C)C=C(C)C(O)C(OC)C(=O)C(C)CC(C)C=CC=CC=C1C` (stereo not given) + CC(C)NCC(C(=O)N1CCN(c2ncnc3c2C(C)CC3O)CC1)c1ccc(Cl)cc1 was tested. Which IC50 (second compound 0.3 µM) did it give?
Answer: The IC50 was 4.54 nM.

Question: And the IC50 (second compound 0.949 µM)?
Answer: The IC50 was 0.725 nM.

Question: And the IC50 (second compound 3 µM)?
Answer: Its IC50 is less than 0.316 nM.

Question: And the IC50 (second compound 9.49 µM)?
Answer: Its IC50 is less than 0.316 nM.

Question: And the IC50 (second compound 30 µM)?
Answer: Its IC50 is less than 0.316 nM.

Question: And the viability, T/C (second compound 0.3 µM, first compound 0.000316 µM)?
Answer: The viability, T/C was 72.6%.

Question: And the viability, T/C (second compound 0.3 µM, first compound 0.001 µM)?
Answer: The viability, T/C was 60.3%.

Question: What about the viability, T/C (second compound 0.3 µM, first compound 0.00316 µM) of the same compound?
Answer: Its viability, T/C is 48.9%.

Question: What about the viability, T/C (second compound 0.3 µM, first compound 0.01 µM) of the same compound?
Answer: The viability, T/C was 49.6%.

Question: And the viability, T/C (second compound 0.3 µM, first compound 0.0316 µM)?
Answer: The viability, T/C was 45.1%.

Question: And the viability, T/C (second compound 0.3 µM, first compound 0.1 µM)?
Answer: Its viability, T/C is 42.6%.

Question: What about the viability, T/C (second compound 0.949 µM, first compound 0.000316 µM) of the same compound?
Answer: The viability, T/C was 58.9%.

Question: What about the viability, T/C (second compound 0.949 µM, first compound 0.001 µM) of the same compound?
Answer: Its viability, T/C is 47.5%.

Question: And the viability, T/C (second compound 0.949 µM, first compound 0.00316 µM)?
Answer: The viability, T/C was 39.2%.

Question: What about the viability, T/C (second compound 0.949 µM, first compound 0.01 µM) of the same compound?
Answer: Its viability, T/C is 38.6%.

Question: And the viability, T/C (second compound 0.949 µM, first compound 0.0316 µM)?
Answer: Its viability, T/C is 37.9%.

Question: And the viability, T/C (second compound 0.949 µM, first compound 0.1 µM)?
Answer: The viability, T/C was 36.8%.

Question: What about the viability, T/C (second compound 3 µM, first compound 0.000316 µM) of the same compound?
Answer: The viability, T/C was 45.5%.

Question: And the viability, T/C (second compound 3 µM, first compound 0.001 µM)?
Answer: The viability, T/C was 37.7%.

Question: What about the viability, T/C (second compound 3 µM, first compound 0.00316 µM) of the same compound?
Answer: The viability, T/C was 27.7%.

Question: And the viability, T/C (second compound 3 µM, first compound 0.01 µM)?
Answer: The viability, T/C was 27.3%.

Question: What about the viability, T/C (second compound 3 µM, first compound 0.0316 µM) of the same compound?
Answer: Its viability, T/C is 30.2%.

Question: What about the viability, T/C (second compound 3 µM, first compound 0.1 µM) of the same compound?
Answer: Its viability, T/C is 28%.

Question: What about the viability, T/C (second compound 9.49 µM, first compound 0.000316 µM) of the same compound?
Answer: Its viability, T/C is 36.7%.

Question: And the viability, T/C (second compound 9.49 µM, first compound 0.001 µM)?
Answer: The viability, T/C was 30.7%.

Question: And the viability, T/C (second compound 9.49 µM, first compound 0.00316 µM)?
Answer: Its viability, T/C is 23.2%.

Question: What about the viability, T/C (second compound 9.49 µM, first compound 0.01 µM) of the same compound?
Answer: The viability, T/C was 23.6%.

Question: What about the viability, T/C (second compound 9.49 µM, first compound 0.0316 µM) of the same compound?
Answer: Its viability, T/C is 24%.

Question: What about the viability, T/C (second compound 9.49 µM, first compound 0.1 µM) of the same compound?
Answer: The viability, T/C was 21.6%.

Question: What about the viability, T/C (second compound 30 µM, first compound 0.000316 µM) of the same compound?
Answer: Its viability, T/C is 30.3%.

Question: And the viability, T/C (second compound 30 µM, first compound 0.001 µM)?
Answer: Its viability, T/C is 27.6%.

Question: What about the viability, T/C (second compound 30 µM, first compound 0.00316 µM) of the same compound?
Answer: Its viability, T/C is 20.4%.

Question: What about the viability, T/C (second compound 30 µM, first compound 0.01 µM) of the same compound?
Answer: Its viability, T/C is 19.1%.

Question: What about the viability, T/C (second compound 30 µM, first compound 0.0316 µM) of the same compound?
Answer: Its viability, T/C is 22%.

Question: And the viability, T/C (second compound 30 µM, first compound 0.1 µM)?
Answer: Its viability, T/C is 17.9%.

Question: `Cn1cnc2c(F)c(Nc3ccc(Br)cc3Cl)c(C(=O)NOCCO)cc21` + CC(C)NCC(C(=O)N1CCN(c2ncnc3c2C(C)CC3O)CC1)c1ccc(Cl)cc1 was tested. Which IC50 (second compound 0.3 µM) did it give?
Answer: Its IC50 is less than 9.49 nM.

Question: And the IC50 (second compound 0.949 µM)?
Answer: Its IC50 is less than 9.49 nM.

Question: What about the IC50 (second compound 3 µM) of the same compound?
Answer: The IC50 was less than 9.49 nM.

Question: What about the IC50 (second compound 9.49 µM) of the same compound?
Answer: Its IC50 is less than 9.49 nM.

Question: And the IC50 (second compound 30 µM)?
Answer: The IC50 was less than 9.49 nM.

Question: And the viability, T/C (second compound 0.3 µM, first compound 0.00949 µM)?
Answer: The viability, T/C was 36.2%.

Question: What about the viability, T/C (second compound 0.3 µM, first compound 0.03 µM) of the same compound?
Answer: Its viability, T/C is 15.6%.

Question: And the viability, T/C (second compound 0.3 µM, first compound 0.0949 µM)?
Answer: Its viability, T/C is 5.04%.

Question: What about the viability, T/C (second compound 0.3 µM, first compound 0.3 µM) of the same compound?
Answer: Its viability, T/C is 5.04%.

Question: And the viability, T/C (second compound 0.3 µM, first compound 0.949 µM)?
Answer: The viability, T/C was 2.85%.

Question: What about the viability, T/C (second compound 0.3 µM, first compound 3 µM) of the same compound?
Answer: Its viability, T/C is 1.59%.

Question: What about the viability, T/C (second compound 0.949 µM, first compound 0.00949 µM) of the same compound?
Answer: The viability, T/C was 32.6%.

Question: And the viability, T/C (second compound 0.949 µM, first compound 0.03 µM)?
Answer: The viability, T/C was 12.9%.

Question: What about the viability, T/C (second compound 0.949 µM, first compound 0.0949 µM) of the same compound?
Answer: The viability, T/C was 4.14%.

Question: What about the viability, T/C (second compound 0.949 µM, first compound 0.3 µM) of the same compound?
Answer: Its viability, T/C is 2.7%.

Question: What about the viability, T/C (second compound 0.949 µM, first compound 0.949 µM) of the same compound?
Answer: Its viability, T/C is 1.73%.

Question: And the viability, T/C (second compound 0.949 µM, first compound 3 µM)?
Answer: The viability, T/C was 1.41%.

Question: What about the viability, T/C (second compound 3 µM, first compound 0.00949 µM) of the same compound?
Answer: Its viability, T/C is 24.3%.

Question: And the viability, T/C (second compound 3 µM, first compound 0.03 µM)?
Answer: The viability, T/C was 10.2%.

Question: And the viability, T/C (second compound 3 µM, first compound 0.0949 µM)?
Answer: Its viability, T/C is 2.52%.

Question: What about the viability, T/C (second compound 3 µM, first compound 0.3 µM) of the same compound?
Answer: Its viability, T/C is 1.7%.

Question: And the viability, T/C (second compound 3 µM, first compound 0.949 µM)?
Answer: The viability, T/C was 1.41%.

Question: What about the viability, T/C (second compound 3 µM, first compound 3 µM) of the same compound?
Answer: Its viability, T/C is 0.98%.

Question: And the viability, T/C (second compound 9.49 µM, first compound 0.00949 µM)?
Answer: The viability, T/C was 19.3%.

Question: What about the viability, T/C (second compound 9.49 µM, first compound 0.03 µM) of the same compound?
Answer: The viability, T/C was 9.42%.

Question: And the viability, T/C (second compound 9.49 µM, first compound 0.0949 µM)?
Answer: The viability, T/C was 2.79%.

Question: And the viability, T/C (second compound 9.49 µM, first compound 0.3 µM)?
Answer: The viability, T/C was 1.33%.

Question: What about the viability, T/C (second compound 9.49 µM, first compound 0.949 µM) of the same compound?
Answer: Its viability, T/C is 0.9%.

Question: And the viability, T/C (second compound 9.49 µM, first compound 3 µM)?
Answer: Its viability, T/C is 0.56%.

Question: And the viability, T/C (second compound 30 µM, first compound 0.00949 µM)?
Answer: Its viability, T/C is 21.7%.

Question: What about the viability, T/C (second compound 30 µM, first compound 0.03 µM) of the same compound?
Answer: The viability, T/C was 8.51%.

Question: And the viability, T/C (second compound 30 µM, first compound 0.0949 µM)?
Answer: Its viability, T/C is 2.57%.

Question: What about the viability, T/C (second compound 30 µM, first compound 0.3 µM) of the same compound?
Answer: Its viability, T/C is 0.97%.

Question: And the viability, T/C (second compound 30 µM, first compound 0.949 µM)?
Answer: Its viability, T/C is 0.37%.

Question: And the viability, T/C (second compound 30 µM, first compound 3 µM)?
Answer: Its viability, T/C is 0.35%.
